Patent US20050238593A1, “Compositions containing dolichol for dermatological and cosmetic use” (priority 2002, published 2005)

Legend:
[1] = Study of anti UV-B activity: UV photo-irradiation of dolichol, absorbance change; assay type: physicochemical
Text: (§1) After irradiation, dolichol undergoes transformations in the most dangerous spectral region (UVB), depending on the dose of radiation applied; it absorbs UV radiation and, if irradiated with UVC rays, instantly acquires an absorption capacity in the UVB region. […] The phenomenon is very weak in the case of irradiation with monochromatic light at 310 nm, more intense with irradiation at 280 nm, and greatest with white light irradiation, namely with the entire emission spectrum of the xenon lamp. […] The photodecomposition products of dolichol have not yet been identified but, by analogy with the findings made with peroxidative degradation of dolichol in isolated hepatocytes treated with carbon tetrachloride, it can be concluded that in biological systems, the degradation cascade leads to the formation of thiobarbituric acid reactive substances (TBARS), which are readily metabolised and detoxified by the body in the event of resorption. […] As regards absorption, it should be borne in mind that dolichol is a normal constituent of all cell membranes, in which it is synthesised and remains until breakdown, without being resorbed into the bloodstream or being transferable to other tissues.

[2] = In vivo photoprotection tests using dolichol; details: dolichol approx. 1 mg/cm2, in vivo
[3] = test system: isolated hepatocytes treated with carbon tetrachloride; assay: Peroxidative degradation of dolichol and TBARS formation in hepatocytes treated with CCl4; assay type: cell-based; details: Vitamin E administered
Text: as §1

Row | Substance | photostability under UV photo-irradiation ([1]; UV photo-irradiation in an oxygen atmosphere) | increase in absorbance at 250 nm ([1]; irradiated with UVC rays) | increase in absorbance at 320 nm ([1]; irradiated with UVC rays, in one minute) [%] | increase in absorbance at 320 nm ([1]; irradiated with UVC rays, in two minutes) [%] | acquisition of UVB absorption (the phenomenon) ([1]; irradiation at 280 nm) | acquisition of UVB absorption (the phenomenon) ([1]; irradiation with monochromatic light at 310 nm) | acquisition of UVB absorption (the phenomenon) ([1]; white light irradiation, entire emission spectrum of the xenon lamp) | (photo)sensitising effects [2] | cell-damaging effects [2] | degradation of dolichol and formation of TBARS [3]
1 | dolichol | apparent breakdown, accompanied by disappearance of UVC absorption capacity | more modest increases | 430 | 580 | more intense | very weak | greatest | does not have cell-damaging effects or (photo)sensitising effects | does not have cell-damaging effects | –
2 | Vitamin E | – | – | – | – | – | – | – | – | – | prevented
